# In PubChem BioAssay (NCI):
#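 GI50 marks 50% less growth. TGI: concentration producing complete growth inhibition.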
# What was measured:
# Assay in all cases: NCI anticancer screen, dose series, 384-well format
# NCI-H226 lung = system: NCI-H226 lung
# M14 melanoma = system: M14 melanoma
# OVCAR-5 ovarian = system: OVCAR-5 ovarian
# UACC-62 melanoma = system: UACC-62 melanoma
# CCRF-CEM leukemia = system: CCRF-CEM leukemia
# ACHN renal = system: ACHN renal
# OVCAR-4 ovarian = system: OVCAR-4 ovarian
# K-562 leukemia = system: K-562 leukemia
# DU-145 prostate = system: DU-145 prostate
# SNB-19 CNS = system: SNB-19 CNS
# SN12C renal = system: SN12C renal
# MDA-MB-468 breast = system: MDA-MB-468 breast
# IGROV1 ovarian = system: IGROV1 ovarian
# 786-0 renal = system: 786-0 renal
# MCF7 breast = system: MCF7 breast
# UO-31 renal = system: UO-31 renal
# TK-10 renal = system: TK-10 renal
# HOP-92 NSCLC = system: HOP-92 NSCLC
# SK-MEL-2 melanoma = system: SK-MEL-2 melanoma
# HOP-62 NSCLC = system: HOP-62 NSCLC
# NCI-H23 lung = system: NCI-H23 lung
# COLO 205 colon = system: COLO 205 colon
# HL-60(TB) leukemia = system: HL-60(TB) leukemia
# U251 glioblastoma = system: U251 glioblastoma
# SNB-75 CNS = system: SNB-75 CNS
# SR leukemia = system: SR leukemia
# HCC-2998 colon = system: HCC-2998 colon
# SF-295 CNS = system: SF-295 CNS
# HT29 colon = system: HT29 colon
# SK-MEL-5 melanoma = system: SK-MEL-5 melanoma
# BT-549 breast = system: BT-549 breast
# SK-OV-3 ovarian = system: SK-OV-3 ovarian
# OVCAR-3 ovarian = system: OVCAR-3 ovarian
# RPMI-8226 leukemia = system: RPMI-8226 leukemia
# SK-MEL-28 melanoma = system: SK-MEL-28 melanoma
# OVCAR-8 ovarian = system: OVCAR-8 ovarian
# A498 renal = system: A498 renal
# CAKI-1 renal = system: CAKI-1 renal
# LOX IMVI melanoma = system: LOX IMVI melanoma
# KM12 colon = system: KM12 colon
# RXF 393 renal = system: RXF 393 renal
# EKVX NSCLC = system: EKVX NSCLC
# HCT-15 colon = system: HCT-15 colon
# HCT-116 colon = system: HCT-116 colon
# MDA-MB-231 breast = system: MDA-MB-231 breast
# SF-539 CNS = system: SF-539 CNS
# NCI-H322M lung = system: NCI-H322M lung
# SF-268 CNS = system: SF-268 CNS
# MALME-3M melanoma = system: MALME-3M melanoma
# NCI-H522 lung = system: NCI-H522 lung
# PC-3 prostate = system: PC-3 prostate
# MOLT-4 leukemia = system: MOLT-4 leukemia
# UACC-257 melanoma = system: UACC-257 melanoma
# MDA-MB-435 melanoma = system: MDA-MB-435 melanoma
# SW-620 colon = system: SW-620 colon
# HS 578T breast = system: HS 578T breast
# T-47D breast = system: T-47D breast
# NCI-H460 NSCLC = system: NCI-H460 NSCLC
# A549 NSCLC = system: A549 NSCLC
# NCI/ADR-RES ovarian = system: NCI/ADR-RES ovarian
smiles,measurement,setting,value
OCCn1cc(-c2cnc3nnn(Cc4ccc5ncccc5c4)c3n2)cn1,GI50,NCI-H226 lung,> 100 µM
same,TGI,NCI-H226 lung,> 100 µM
same,GI50,M14 melanoma,> 100 µM
same,TGI,M14 melanoma,> 100 µM
same,GI50,OVCAR-5 ovarian,> 100 µM
same,TGI,OVCAR-5 ovarian,> 100 µM
same,GI50,UACC-62 melanoma,> 100 µM
same,TGI,UACC-62 melanoma,> 100 µM
same,GI50,CCRF-CEM leukemia,> 100 µM
same,TGI,CCRF-CEM leukemia,> 100 µM
same,GI50,ACHN renal,> 100 µM
same,TGI,ACHN renal,> 100 µM
same,GI50,OVCAR-4 ovarian,> 100 µM
same,TGI,OVCAR-4 ovarian,> 100 µM
same,GI50,K-562 leukemia,> 100 µM
same,TGI,K-562 leukemia,> 100 µM
same,GI50,DU-145 prostate,> 100 µM
same,TGI,DU-145 prostate,> 100 µM
same,GI50,SNB-19 CNS,> 100 µM
same,TGI,SNB-19 CNS,> 100 µM
same,GI50,SN12C renal,> 100 µM
same,TGI,SN12C renal,> 100 µM
same,GI50,MDA-MB-468 breast,> 100 µM
same,TGI,MDA-MB-468 breast,> 100 µM
same,GI50,IGROV1 ovarian,> 100 µM
same,TGI,IGROV1 ovarian,> 100 µM
same,GI50,786-0 renal,> 100 µM
same,TGI,786-0 renal,> 100 µM
same,GI50,MCF7 breast,> 100 µM
same,TGI,MCF7 breast,> 100 µM
same,GI50,UO-31 renal,> 100 µM
same,TGI,UO-31 renal,> 100 µM
same,GI50,TK-10 renal,> 100 µM
same,TGI,TK-10 renal,> 100 µM
same,GI50,HOP-92 NSCLC,> 100 µM
same,TGI,HOP-92 NSCLC,> 100 µM
same,GI50,SK-MEL-2 melanoma,> 100 µM
same,TGI,SK-MEL-2 melanoma,> 100 µM
same,GI50,HOP-62 NSCLC,> 100 µM
same,TGI,HOP-62 NSCLC,> 100 µM
same,GI50,NCI-H23 lung,> 100 µM
same,TGI,NCI-H23 lung,> 100 µM
same,GI50,COLO 205 colon,> 100 µM
same,TGI,COLO 205 colon,> 100 µM
CNC(=O)c1cc(Oc2ccc3nc(N[C@@H]4CCCC[C@H]4O)sc3c2)ccn1,GI50,NCI-H226 lung,35.2 µM
same,TGI,NCI-H226 lung,> 100 µM
same,GI50,M14 melanoma,> 100 µM
same,TGI,M14 melanoma,> 100 µM
same,GI50,HL-60(TB) leukemia,22.2 µM
same,TGI,HL-60(TB) leukemia,> 100 µM
same,GI50,U251 glioblastoma,73.2 µM
same,TGI,U251 glioblastoma,> 100 µM
same,GI50,OVCAR-5 ovarian,> 100 µM
same,TGI,OVCAR-5 ovarian,> 100 µM
same,GI50,SNB-75 CNS,68.8 µM
same,TGI,SNB-75 CNS,> 100 µM
same,GI50,SR leukemia,10.5 µM
same,TGI,SR leukemia,23.3 µM
same,GI50,HCC-2998 colon,> 100 µM
same,TGI,HCC-2998 colon,> 100 µM
same,GI50,CCRF-CEM leukemia,39.3 µM
same,TGI,CCRF-CEM leukemia,> 100 µM
same,GI50,SF-295 CNS,41.7 µM
same,TGI,SF-295 CNS,> 100 µM
same,GI50,HT29 colon,> 100 µM
same,TGI,HT29 colon,> 100 µM
same,GI50,ACHN renal,> 100 µM
same,TGI,ACHN renal,> 100 µM
same,GI50,OVCAR-4 ovarian,40.3 µM
same,TGI,OVCAR-4 ovarian,> 100 µM
same,GI50,SK-MEL-5 melanoma,19.8 µM
same,TGI,SK-MEL-5 melanoma,42.2 µM
same,GI50,BT-549 breast,60.4 µM
same,TGI,BT-549 breast,> 100 µM
same,GI50,K-562 leukemia,35.1 µM
same,TGI,K-562 leukemia,> 100 µM
same,GI50,DU-145 prostate,> 100 µM
same,TGI,DU-145 prostate,> 100 µM
same,GI50,SK-OV-3 ovarian,> 100 µM
same,TGI,SK-OV-3 ovarian,> 100 µM
same,GI50,OVCAR-3 ovarian,> 100 µM
same,TGI,OVCAR-3 ovarian,> 100 µM
same,GI50,RPMI-8226 leukemia,18.9 µM
same,TGI,RPMI-8226 leukemia,69.1 µM
same,GI50,SK-MEL-28 melanoma,> 100 µM
same,TGI,SK-MEL-28 melanoma,> 100 µM
same,GI50,OVCAR-8 ovarian,59 µM
same,TGI,OVCAR-8 ovarian,> 100 µM
same,GI50,A498 renal,> 100 µM
same,TGI,A498 renal,> 100 µM
same,GI50,CAKI-1 renal,> 100 µM
same,TGI,CAKI-1 renal,> 100 µM
same,GI50,LOX IMVI melanoma,72.2 µM
same,TGI,LOX IMVI melanoma,> 100 µM
same,GI50,KM12 colon,> 100 µM
same,TGI,KM12 colon,> 100 µM
same,GI50,SNB-19 CNS,> 100 µM
same,TGI,SNB-19 CNS,> 100 µM
same,GI50,SN12C renal,> 100 µM
same,TGI,SN12C renal,> 100 µM
same,GI50,MDA-MB-468 breast,12.3 µM
same,TGI,MDA-MB-468 breast,45.3 µM
same,GI50,RXF 393 renal,25.8 µM
same,TGI,RXF 393 renal,83.2 µM
same,GI50,EKVX NSCLC,58.9 µM
same,TGI,EKVX NSCLC,> 100 µM
same,GI50,IGROV1 ovarian,> 100 µM
same,TGI,IGROV1 ovarian,> 100 µM
same,GI50,HCT-15 colon,34.4 µM
same,TGI,HCT-15 colon,> 100 µM
same,GI50,HCT-116 colon,53 µM
same,TGI,HCT-116 colon,> 100 µM
same,GI50,MDA-MB-231 breast,60 µM
same,TGI,MDA-MB-231 breast,> 100 µM
same,GI50,786-0 renal,> 100 µM
same,TGI,786-0 renal,> 100 µM
same,GI50,SF-539 CNS,89.1 µM
same,TGI,SF-539 CNS,> 100 µM
same,GI50,NCI-H322M lung,> 100 µM
same,TGI,NCI-H322M lung,> 100 µM
same,GI50,MCF7 breast,34.7 µM
same,TGI,MCF7 breast,> 100 µM
same,GI50,SF-268 CNS,> 100 µM
same,TGI,SF-268 CNS,> 100 µM
same,GI50,MALME-3M melanoma,56.2 µM
same,TGI,MALME-3M melanoma,> 100 µM
same,GI50,NCI-H522 lung,59 µM
same,TGI,NCI-H522 lung,> 100 µM
same,GI50,UO-31 renal,> 100 µM
same,TGI,UO-31 renal,> 100 µM
same,GI50,PC-3 prostate,71.3 µM
same,TGI,PC-3 prostate,> 100 µM
same,GI50,TK-10 renal,84.8 µM
same,TGI,TK-10 renal,> 100 µM
same,GI50,MOLT-4 leukemia,31.7 µM
same,TGI,MOLT-4 leukemia,> 100 µM
same,GI50,HOP-92 NSCLC,> 100 µM
same,TGI,HOP-92 NSCLC,> 100 µM
same,GI50,HOP-62 NSCLC,51.1 µM
same,TGI,HOP-62 NSCLC,> 100 µM
same,GI50,NCI-H23 lung,45.3 µM
same,TGI,NCI-H23 lung,> 100 µM
same,GI50,UACC-257 melanoma,48.4 µM
same,TGI,UACC-257 melanoma,> 100 µM
same,GI50,COLO 205 colon,> 100 µM
same,TGI,COLO 205 colon,> 100 µM
same,GI50,MDA-MB-435 melanoma,> 100 µM
same,TGI,MDA-MB-435 melanoma,> 100 µM
same,GI50,SW-620 colon,> 100 µM
same,TGI,SW-620 colon,> 100 µM
same,GI50,HS 578T breast,46.1 µM
same,TGI,HS 578T breast,> 100 µM
same,GI50,T-47D breast,33.4 µM
same,TGI,T-47D breast,> 100 µM
same,GI50,NCI-H460 NSCLC,48 µM
same,TGI,NCI-H460 NSCLC,> 100 µM
same,GI50,A549 NSCLC,> 100 µM
same,TGI,A549 NSCLC,> 100 µM
same,GI50,NCI/ADR-RES ovarian,24.2 µM
same,TGI,NCI/ADR-RES ovarian,> 100 µM
